The text below walks through data of patent US8486962B2, “Antifungal agents” (F2G Ltd., priority 2005, dated 2013).

The test system of assay [1] is Aspergillus fumigatus AF210. The assay is described as follows: MIC, YAG medium, Aspergillus fumigatus AF210. It is filed as cell-based. The note with it: Aspergillus fumigatus, AF210; YAG medium; read-out: MIC A Fum. 210. A digest of the protocol:
(§1)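 Broth microdilution over doubling dilutions (50-0.05 mg/L). C. albicans in RPMI with 2% glucose and 0.135M MOPS (pH7.0), 1-2×10^3 cfu/ml, 24-48 hrs at 35° C; MIC = >80% growth inhibition by OD485. Aspergillus spp. in YAG (1% glucose, 1% ammonium chloride, 0.5% yeast extract), 1-2×10^4 cfu/ml, 24 hrs, >70% inhibition.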

A further assay concerns A Terreus 49. The assay is described as follows: MIC, YAG medium, A Terreus 49. It counts as cell-based, Aspergillus terreus. Conditions: Aspergillus terreus; YAG medium; read-out: MIC A Terreus 49. Summed up: as §1
The test system of a further assay is Aspergillus niger. The assay is described as follows: MIC, YAG medium, Aspergillus niger. The note with it: Aspergillus niger; YAG medium; read-out: MIC A Niger 1. It is filed as cell-based. Summed up: as §1
The next assay relates to Aspergillus flavus. As to the kind of experiment: MIC, YAG medium, Aspergillus flavus. It is filed as cell-based. The note with it: Aspergillus flavus; YAG medium; read-out: MIC A Flavus 01. A digest of the protocol:
as §1

Assay [2] concerns Aspergillus fumigatus AF293. The assay is described as follows: MIC, YAG medium, Aspergillus fumigatus AF293. The note with it: Aspergillus fumigatus, AF293; YAG medium; read-out: MIC A Fum. 293. It counts as cell-based. A digest of the protocol: as §1
Another assay relates to Aspergillus terreus. The assay is described as follows: MIC, YAG medium, Aspergillus terreus. It counts as cell-based. The note with it: Aspergillus terreus; YAG medium; read-out: MIC A Terreus 4. Summed up:
as §1

≈ marks a conversion by molar mass, not a printed value.

For `O=C(Nc1ccc(Nc2ncccn2)cc1)C(=O)c1c(-c2ccccc2)cc2ccccn12` [Example 276, 2-Oxo-2-(2-phenyl-indolizin-3-yl)-N-[4-(pyrimidin-2-ylamino)-phenyl]-acetamide], the MIC in assay [1] worked out at 0.2 µg/mL (≈ 0.461 µM); in the assay with A Terreus 49, 0.015 µg/mL (≈ 0.0346 µM); in the assay on Aspergillus niger it was 0.05 µg/mL (≈ 0.115 µM); in the assay with Aspergillus flavus, 0.05 µg/mL (≈ 0.115 µM); in assay [2] it was 0.1 µg/mL (≈ 0.231 µM); in the assay on Aspergillus terreus it was 0.05 µg/mL (≈ 0.115 µM).

For the compound `O=C(Nc1ccc(F)cc1F)C(=O)c1c(-c2ccccc2Cl)cc2ccccn12` [Example 277, 2-[2-(2-Chloro-phenyl)-indolizin-3-yl]-N-(2,4-difluoro-phenyl)-2-oxo-acetamide], the minimum inhibitory concentration (MIC) in assay [1] turned out to be 0.05 µg/mL (≈ 0.122 µM); with A Terreus 49, 0.2 µg/mL (≈ 0.487 µM); in the assay on Aspergillus niger, 0.03 µg/mL (≈ 0.073 µM); in the assay on Aspergillus flavus, 0.03 µg/mL (≈ 0.073 µM); in assay [2] it was 0.4 µg/mL (≈ 0.974 µM); in the assay with Aspergillus terreus, 0.015 µg/mL (≈ 0.0365 µM).

As to `CN(C)Cc1ccc(NC(=O)C(=O)c2c(-c3ccccc3)cc3ccccn23)cc1` [Example 278, N-(4-Dimethylaminomethyl-phenyl)-2-oxo-2-(2-phenyl-indolizin-3-yl)-acetamide], the MIC in assay [1] was determined as 12.5 µg/mL (≈ 31.4 µM); with A Terreus 49, 12.5 µg/mL (≈ 31.4 µM); in the assay on Aspergillus niger, 25 µg/mL (≈ 62.9 µM); in the assay with Aspergillus flavus it was 6.25 µg/mL (≈ 15.7 µM); in assay [2], 25 µg/mL (≈ 62.9 µM); in the assay with Aspergillus terreus it was 6.25 µg/mL (≈ 15.7 µM).

For `O=C(Nc1ccc(Cl)cc1)C(=O)c1c(-c2ccccc2)cc2ccccn12` [Example 281, N-(4-Chloro-phenyl)-2-oxo-2-(2-phenyl-indolizin-3-yl)-acetamide], the MIC in assay [1] was determined as 0.12 µg/mL (≈ 0.32 µM); with A Terreus 49, 0.008 µg/mL (≈ 0.0213 µM); with Aspergillus niger, 0.031 µg/mL (≈ 0.0827 µM); in the assay with Aspergillus flavus, 0.031 µg/mL (≈ 0.0827 µM); in assay [2], 0.25 µg/mL (≈ 0.667 µM); in the assay on Aspergillus terreus it was 0.031 µg/mL (≈ 0.0827 µM).

`COc1ccc(NC(=O)C(=O)c2c(-c3ccccc3)cc3ccccn23)cc1C(C)=O` [Example 282, N-(3-Acetyl-4-methoxy-phenyl)-2-oxo-2-(2-phenyl-indolizin-3-yl)-acetamide]: the MIC in assay [1] is 0.1 µg/mL (≈ 0.242 µM); in the assay on A Terreus 49, 0.004 µg/mL (≈ 0.0097 µM); with Aspergillus niger, 0.1 µg/mL (≈ 0.242 µM); with Aspergillus flavus, 0.008 µg/mL (≈ 0.0194 µM); in assay [2] it was 0.1 µg/mL (≈ 0.242 µM); with Aspergillus terreus, 0.015 µg/mL (≈ 0.0364 µM).

In the case of `Cc1ncccc1-c1cc2ccccn2c1C(=O)C(=O)Nc1ccc(OCC(F)(F)C(F)F)cc1` [Example 283, 2-[2-(2-Methyl-pyridin-3-yl)-indolizin-3-yl]-2-oxo-N-[4-(2,2,3,3-tetrafluoro-propoxy)-phenyl]-acetamide], the MIC came out at 0.2 µg/mL (≈ 0.412 µM) in assay [1]; 0.05 µg/mL (≈ 0.103 µM) with A Terreus 49; 0.05 µg/mL (≈ 0.103 µM) with Aspergillus niger; 0.015 µg/mL (≈ 0.0309 µM) in the assay on Aspergillus flavus; 0.2 µg/mL (≈ 0.412 µM) in assay [2]; 0.1 µg/mL (≈ 0.206 µM) with Aspergillus terreus.

`CC(=O)Cc1ccc(NC(=O)C(=O)c2c(-c3ccccc3)cc3ccccn23)cc1` [Example 284, 2-Oxo-N-[4-(2-oxo-propyl)-phenyl]-2-(2-phenyl-indolizin-3-yl)-acetamide]: the MIC in assay [1] stood at 0.1 µg/mL (≈ 0.252 µM); with A Terreus 49 it was 0.015 µg/mL (≈ 0.0378 µM); in the assay on Aspergillus niger it was 0.05 µg/mL (≈ 0.126 µM); with Aspergillus flavus it was 0.05 µg/mL (≈ 0.126 µM); in assay [2], 0.1 µg/mL (≈ 0.252 µM); in the assay on Aspergillus terreus it was 0.05 µg/mL (≈ 0.126 µM).

For the compound `O=C(Nc1ccc(Nc2nccs2)cc1)C(=O)c1c(-c2ccccc2)cc2ccccn12` [Example 285, 2-Oxo-2-(2-phenyl-indolizin-3-yl)-N-[4-(thiazol-2-ylamino)-phenyl]-acetamide], the MIC was determined as 0.8 µg/mL (≈ 1.82 µM) in assay [1]; 0.03 µg/mL (≈ 0.0684 µM) in the assay with A Terreus 49; 0.05 µg/mL (≈ 0.114 µM) with Aspergillus niger; 0.05 µg/mL (≈ 0.114 µM) in the assay with Aspergillus flavus; 0.4 µg/mL (≈ 0.912 µM) in assay [2]; 0.05 µg/mL (≈ 0.114 µM) in the assay with Aspergillus terreus.

Take `Cc1ccccc1-c1cc2ccccn2c1C(=O)C(=O)Nc1ccc(OCC(F)(F)C(F)F)nc1` [Example 286, 2-Oxo-N-[6-(2,2,3,3-tetrafluoro-propoxy)-pyridin-3-yl]-2-(2-o-tolyl-indolizin-3-yl)-acetamide]: the MIC in assay [1] worked out at 0.1 µg/mL (≈ 0.206 µM); in the assay on A Terreus 49 it was 0.015 µg/mL (≈ 0.0309 µM); with Aspergillus niger, 0.015 µg/mL (≈ 0.0309 µM); with Aspergillus flavus it was 0.015 µg/mL (≈ 0.0309 µM); in assay [2], 0.1 µg/mL (≈ 0.206 µM); with Aspergillus terreus, 0.1 µg/mL (≈ 0.206 µM).

As to `Cc1noc(C)c1-c1ccc(NC(=O)C(=O)c2c(-c3ccccc3)cc3ccccn23)cc1` [Example 287, N-[4-(3,5-Dimethyl-isoxazol-4-yl)-phenyl]-2-oxo-2-(2-phenyl-indolizin-3-yl)-acetamide], the MIC was 0.1 µg/mL (≈ 0.23 µM) in assay [1]; 0.008 µg/mL (≈ 0.0184 µM) in the assay on A Terreus 49; 0.015 µg/mL (≈ 0.0344 µM) in the assay with Aspergillus niger; 0.03 µg/mL (≈ 0.0689 µM) with Aspergillus flavus; 0.05 µg/mL (≈ 0.115 µM) in assay [2]; 0.03 µg/mL (≈ 0.0689 µM) in the assay on Aspergillus terreus.

`O=C(Nc1cccc(-c2ncco2)c1)C(=O)c1c(-c2ccccc2)cc2ccccn12` [Example 288, N-(3-Oxazol-2-yl-phenyl)-2-oxo-2-(2-phenyl-indolizin-3-yl)-acetamide]: the MIC in assay [1] came out at 0.2 µg/mL (≈ 0.491 µM); in the assay on A Terreus 49 it was 0.004 µg/mL (≈ 0.00982 µM); in the assay with Aspergillus niger it was 0.1 µg/mL (≈ 0.245 µM); in the assay with Aspergillus flavus, 0.015 µg/mL (≈ 0.0368 µM); in assay [2] it was 0.1 µg/mL (≈ 0.245 µM); with Aspergillus terreus it was 0.008 µg/mL (≈ 0.0196 µM).

For the compound `CCCN(CCC)c1ccc(NC(=O)C(=O)c2c(-c3ccccc3)cc3ccccn23)cn1` [Example 289, N-(6-Dipropylamino-pyridin-3-yl)-2-oxo-2-(2-phenyl-indolizin-3-yl)-acetamide], the MIC was determined as 0.05 µg/mL (≈ 0.113 µM) in assay [1]; 0.008 µg/mL (≈ 0.0182 µM) in the assay on A Terreus 49; 0.004 µg/mL (≈ 0.00908 µM) in the assay with Aspergillus niger; 0.004 µg/mL (≈ 0.00908 µM) in the assay with Aspergillus flavus; 0.05 µg/mL (≈ 0.113 µM) in assay [2]; 0.008 µg/mL (≈ 0.0182 µM) with Aspergillus terreus.

Turning to `CCN(CC)c1ccc(NC(=O)C(=O)c2c(-c3ccccc3)cc3ccccn23)cc1C` [Example 290, N-(4-Diethylamino-3-methyl-phenyl)-2-oxo-2-(2-phenyl-indolizin-3-yl)-acetamide], the MIC came out at 0.2 µg/mL (≈ 0.47 µM) in assay [1]; 0.003 µg/mL (≈ 0.00705 µM) with A Terreus 49; 0.05 µg/mL (≈ 0.117 µM) in the assay with Aspergillus niger; 0.05 µg/mL (≈ 0.117 µM) with Aspergillus flavus; 0.1 µg/mL (≈ 0.235 µM) in assay [2]; 0.03 µg/mL (≈ 0.0705 µM) in the assay on Aspergillus terreus.

Take `O=C(Nc1ccc(-c2cnco2)cc1)C(=O)c1c(-c2ccccc2)cc2ccccn12` [Example 291, N-(4-Oxazol-5-yl-phenyl)-2-oxo-2-(2-phenyl-indolizin-3-yl)-acetamide]: the MIC came to 3.1 µg/mL (≈ 7.61 µM) in assay [1]; 0.015 µg/mL (≈ 0.0368 µM) in the assay with A Terreus 49; 0.05 µg/mL (≈ 0.123 µM) with Aspergillus niger; 0.03 µg/mL (≈ 0.0736 µM) in the assay on Aspergillus flavus; 0.8 µg/mL (≈ 1.96 µM) in assay [2]; 0.015 µg/mL (≈ 0.0368 µM) with Aspergillus terreus.

Regarding `CN(C)c1ccc(NC(=O)C(=O)c2c(-c3ccccc3)cc3ccccn23)cc1-c1ncco1` [Example 292, N-(4-Dimethylamino-3-oxazol-2-yl-phenyl)-2-oxo-2-(2-phenyl-indolizin-3-yl)-acetamide], the MIC in assay [1] amounted to 0.2 µg/mL (≈ 0.444 µM); in the assay with A Terreus 49 it was 0.015 µg/mL (≈ 0.0333 µM); with Aspergillus niger, 0.8 µg/mL (≈ 1.78 µM); with Aspergillus flavus, 0.03 µg/mL (≈ 0.0666 µM); in assay [2], 0.4 µg/mL (≈ 0.888 µM); in the assay on Aspergillus terreus, 0.03 µg/mL (≈ 0.0666 µM).

In the case of `O=C(Nc1ccc(-c2nccs2)cc1)C(=O)c1c(-c2ccccc2)cc2ccccn12` [Example 293, 2-Oxo-2-(2-phenyl-indolizin-3-yl)-N-(4-thiazol-2-yl-phenyl)-acetamide], the MIC in assay [1] turned out to be 0.4 µg/mL (≈ 0.945 µM); with A Terreus 49, 0.004 µg/mL (≈ 0.00945 µM); in the assay on Aspergillus niger it was 0.008 µg/mL (≈ 0.0189 µM); with Aspergillus flavus it was 0.05 µg/mL (≈ 0.118 µM); in assay [2], 0.1 µg/mL (≈ 0.236 µM); in the assay on Aspergillus terreus, 0.015 µg/mL (≈ 0.0354 µM).

A word on the MIC: it is the lowest concentration found to suppress growth.
